Source: patent publication US20240382465A1, “AROMATIC ACETYLENE DERIVATIVE, AND PREPARATION METHOD THEREFOR AND USE THEREOF” (priority 2021, published 2024)
≈ marks a conversion by molar mass, not a printed value.

Assays:
[1] = target: recombinant Pseudomonas aeruginosa LpxC (Pseudomonas aeruginosa (strain ATCC 15692 / DSM 22644 / CIP 104116 / JCM 14847 / LMG 12228 / 1C / PRS 101 / PAO1), UniProt P47205); test: Inhibition of LpxC enzymatic activity (fluorescamine assay); type: biochemical; settings: recombinant P. aeruginosa LpxC 5 nM, substrate 10 μM, 25° C., 120 minutes; read-out: IC50
Protocol: The degree of inhibition of the enzymatic activity of recombinant Pseudomonas aeruginosa LpxC by the compounds of the present disclosure under in vitro conditions was determined using the following method.
The experimental procedure is briefly described as follows: The test compound was first dissolved in DMSO to prepare a 10 mM stock solution. The reaction was carried out in a 96-well microplate. First, 20 μL of recombinant Pseudomonas aeruginosa LpxC (purchased from Signalway Antibody, product number AP74647-2) was added to each well, with a final concentration of 5 nM. 5 μL of the compound to be tested was then added, and the compound was diluted 4 times to 8 concentration points with a concentration range of 0.61-10,000 nM. 5 μL of LpxC substrate UDP-3-O—(R-3-hydroxydecanoyl)-GlcNAc (purchased from Biosynth Carbosynth, product number: mu75071) was added, with a final concentration of the substrate of 10 μM. The plate was incubated at 25° C. for 120 minutes. Then 20 μL of 2.0 mg/mL fluorescamine (purchased from sigmaaldrich, product number: F9015, solvent: 1:1 dimethylformamide/acetonitrile) was added to the reaction system, and mixed well for 10 minutes of reaction. Finally, 50 μL of 200 mM sodium phosphate buffer (pH 8.0) was added to terminate the reaction. Reading was carried out using a microplate reader (BMG), and the excitation and emission wavelengths were 390 and 495 nm respectively. By comparing with the fluorescence intensity ratio of the control group ([…]), the percentage inhibition rate of the compound at each concentration was calculated.

E. coli ATCC 25922 = test: Antibacterial activity, MIC by broth microdilution (CLSI); type: cell-based; settings: Escherichia coli, ATCC25922; E. coli ATCC 25922, 35° C., 18 to 24 hours; read-out: MIC(E. coli)
Protocol: The in vitro minimum inhibitory concentration (MIC) was determined in accordance with the CLSI guidelines, and was measured using the broth microdilution method.
The experimental process is briefly described as follows: The test compound was dissolved in DMSO to prepare a […] stock solution, which was then prepared into 11 twice-diluted 100× high-concentration working solutions (the final concentration of the system was 64 μg/mL-0.06 μg/mL) using DMSO. The strains (K. pneumoniae ATCC13883 and E. coli ATCC 25922) frozen in −80° C. glycerol were inoculated into solid agar medium, placed in an incubator at 35° C. for 18-24 hours of incubation. After the preparation of strains was completed, an appropriate amount of solid plate culture was collected, resuspended in physiological saline, and mixed well. The bacterial suspension was adjusted to a suitable turbidity using a turbidity meter, containing approximately 1×10^8 cfu/mL bacteria. Then the bacterial suspension with the adjusted turbidity was diluted to a bacterial concentration of 5×10^5 cfu/ml using the culture medium for measurement, to complete the preparation of the inoculum solution. 198 μL of the inoculum solution was inoculated into a 96-well plate, and then added with 2 μL of a 100× high-concentration working solution of the compound. Then the 96-well plate was placed at 35° C. for 18 to 24 hours of incubation.

SMILES | IC50 [1] | MIC (E. coli ATCC 25922)
C[C@H](O)c1nccn1Cc1cc(-c2ccc(C#Cc3ccc(N4CCOCC4)cc3)cc2)on1 [Example 5] | 72.3 nM | 1 µg/mL (≈ 2.2 µM)
C[C@H](O)c1nccn1Cc1cc(-c2ccc(C#Cc3ccc(CN4CCOCC4C(=O)O)cc3)cc2)on1 (stereo partly drawn) [Example 20, 4-(4-((4-(3-((2-((S)-1-hydroxyethyl)-1H-imidazol-1-yl)methyl)isoxazol-5-yl)phenyl)ethynyl)benzyl)morpholin-3-carboxylic acid] | 9.86 nM | 4 µg/mL (≈ 7.8 µM)
C[C@H](O)c1nccn1Cc1coc(-c2ccc(C#Cc3ccc(CN4CCC(O)CC4)cc3)cc2)n1 [Example 22, (S)-1-(4-((4-(4-((2-(1-hydroxyethyl)-1H-imidazol-1-yl)methyl)oxazol-2-yl)phenyl)ethynyl)benzyl)piperidin-4-ol] | 98.9 nM | 4 µg/mL (≈ 8.29 µM)
C[C@H](O)c1nccn1Cc1cc(-c2ccc(C#Cc3ccc(N4CCC(O)CC4)cc3)cc2)on1 [Example 41, (S)-1-(4-((4-(3-((2-(1-hydroxyethyl)-1H-imidazol-1-yl)methyl)isoxazol-5-yl)phenyl)ethynyl)phenyl)piperidin-4-ol] | 26.3 nM | –
C[C@H](O)c1nccn1Cc1cc(-c2ccc(C#Cc3ccc(C(=O)N4CC(O)C4)cc3)cc2)on1 [Example 68, (S)-(3-hydroxyazetidin-1-yl)(4-((4-(3-((2-(1-hydroxyethyl)-1 H-imidazol-1-yl)methyl)isoxazol-5-yl)phenyl)ethynyl)phenyl)methanone] | 68.3 nM | –
C[C@H](O)c1nccn1Cc1cc(-c2ccc(C#Cc3ccc(C(=O)NCC(=O)O)cc3)cc2)on1 [Example 74, (S)-(4-((4-(3-((2-(1-hydroxy-ethyl)-1H-imidazol-1-yl)methyl)isoxazol-5-yl)phenyl)ethynyl)benzoyl)glycinate] | 21.2 nM | –
C[C@H](O)c1nccn1Cc1cc(-c2ccc(C#Cc3ccc(OC4CCC(C(=O)O)CC4)cc3)cc2)on1 (stereo partly drawn) [Example 79, (S)-4-(4-((4-(3-((2-(1-hydroxyethyl)-1H-imidazol-1-yl)methyl)isoxazol-5-yl)phenyl)ethynyl)phenoxy)cyclohexane-1-carboxylic acid] | 42.5 nM | –
C[C@H](O)c1nccn1Cc1cc(-c2ccc(C#Cc3ccc(OCCN4CCOCC4)cc3)cc2)on1 [Example 80, (S)-1-(1-((5-(4-((4-(2-morpho-linoethoxy)phenyl)ethynyl)phenyl)isoxazol-3-yl)methyl)-1H-imidazol-2-yl)ethan-1-ol] | 64.9 nM | –
C[C@H](O)c1nccn1Cc1cc(-c2ccc(C#Cc3ccc(S(N)(=O)=O)cc3)cc2)on1 [Example 83, (S)-4-((4-(3-((2-(1-hydroxy-ethyl)-1H-imidazol-1-yl)methyl)isoxazol-5-yl)phenyl)ethynyl) benzenesulfonamide] | 54.7 nM | –
C[C@H](O)c1nccn1Cc1cc(-c2ccc(C#Cc3ccc(C(C)(C)N4CCOCC4)cc3)cc2)on1 [Example 94, (S)-1-(1-((5-(4-((4-(2-morpho-linopropan-2-yl)phenyl)ethynyl)phenyl)isoxazol-3-yl)methyl)-1H-imidazol-2-yl)ethan-1-ol] | 76.5 nM | –
C[C@H](O)c1nccn1Cc1cc(-c2ccc(C#Cc3ccc(CN4CCC(O)C(F)(F)C4)cc3)cc2)on1 (stereo partly drawn) [Example 97, 3,3-difluoro-1-(4-((4-(3-((2-((S)-1-hydroxyethyl)-1H-imidazol-1-yl)methyl)isoxazol-5-yl)phenyl)ethynyl)benzyl) piperidin-4-ol] | 31.9 nM | –
C[C@H](O)c1nccn1Cc1cc(-c2ccc(C#Cc3ccc(Cn4ccnc4)cc3)cc2)on1 [Example 98, (S)-1-(1-((5-(4-((4-((1H-imida-zol-1-yl)methyl)phenyl)ethynyl)phenyl)isoxazol-3-yl)methyl)-1H-imidazol-2-yl)ethan-1-ol] | 78.5 nM | –
CC(=O)c1ccc(C#Cc2ccc(-c3cc(Cn4ccnc4[C@H](C)O)no3)cc2)cn1 [Example 103, (S)-1-(5-((4-(3-((2-(1-hydroxyethyl)-1H-imidazol-1-yl)methyl)isoxazol-5-yl)phenyl)ethynyl)pyridin-2-yl)ethan-1-one] | 46.8 nM | –
C[C@H](O)c1nccn1Cc1cc(-c2ccc(C#Cc3ccc(CN4CCOCC4)cc3)cn2)no1 [Example 104, (S)-1-(1-((3-(5-((4-(morpholino-methyl)phenyl)ethynyl)pyridin-2-yl)isoxazol-5-yl)methyl)-1H-imidazol-2-yl)ethan-1-ol] | 58.6 nM | –
C[C@H](O)c1nccn1Cc1cc(-c2ccc(C#Cc3ccc(C(=O)NCCO)nc3)cc2)on1 [Example 105, (S)-N-(2-hydroxyethyl)-5-((4-(3-((2-(1-hydroxyethyl)-1H-imidazol-1-yl)methyl)isoxazol-5-yl)phenyl)ethynyl) picolinamide] | 22.6 nM | –
C[C@H](O)c1nccn1Cc1cc(-c2ccc(C#Cc3ccccc3C(=O)O)cc2)on1 [Example 106, (S)-2-((4-(3-((2-(1-hydroxyethyl)-1H-imidazol-1-yl)methyl)isoxazol-5-yl)phenyl)ethynyl) benzoic acid] | 68.9 nM | –
C[C@H](O)c1nccn1Cc1cc(-c2ccc(C#Cc3ccc(CN4CC(CO)C4)nc3)cc2)on1 [Example 113, (S)-1-(1-((5-(4-((6-((3-(hydroxymethyl)azetidin-1-yl)methyl)pyridin-3-yl)ethynyl)phenyl)isoxazol-3-yl)methyl)-1H-imidazol-2-yl)ethan-1-ol] | 24.6 nM | –
C[C@H](O)c1nccn1Cc1cc(-c2ccc(C#Cc3ccc(CNCC(=O)O)nc3)cc2)on1 [Example 116] | 47.9 nM | –
C[C@H](O)c1nccn1Cc1cc(-c2ccc(C#Cc3ccc(CN4CC(C(=O)O)C4)nc3)cc2)on1 [Example 117, (S)-1-((5-((4-(3-((2-(1-hydroxyethyl)-1H-imidazol-1-yl)methyl)isoxazol-5-yl)phenyl)ethynyl)pyridin-2-yl)methyl)azetidin-3-carboxylic acid] | 18.5 nM | –
C[C@H](O)c1nccn1Cc1cc(-c2ccc(C#Cc3ccc(CN4CC(CC#N)C4)nc3)cc2)on1 [Example 118, (S)-2-(1-((5-((4-(3-((2-(1-hydroxyethyl)-1H-imidazol-1-yl)methyl)isoxazol-5-yl)phenyl)ethynyl)pyridin-2-yl)methyl)azetidin-3-yl)acetonitrile] | 16.5 nM | –
C[C@H](O)c1nccn1Cc1cc(-c2ccc(C#Cc3ccc(CN4CC(C#N)C4)nc3)cc2)on1 [Example 119, (S)-1-((5-((4-(3-((2-(1-hydroxyethyl)-1H-imidazol-1-yl)methyl)isoxazol-5-yl)phenyl)ethynyl)pyridin-2-yl)methyl)azetidin-3-carbonitrile] | 7.42 nM | –
C[C@H](O)c1nccn1Cc1cc(-c2ccc(C#Cc3ccc(C#N)nc3)cc2)on1 [Example 120, (S)-5-((4-(3-((2-(1-hydroxyethyl)-1H-imidazol-1-yl)methyl)isoxazol-5-yl)phenyl)ethynyl)picolinonitrile] | 77.1 nM | –
C[C@H](O)c1nccn1Cc1cc(-c2ccc(C#Cc3ccc(CN4CC(O)C4)nc3)cc2)on1 [Example 121, (S)-1-((5-((4-(3-((2-(1-hydroxyethyl)-1H-imidazol-1-yl)methyl)isoxazol-5-yl)phenyl)ethynyl)pyridin-2-yl)methyl)azetidin-3-ol] | 22.3 nM | –
C[C@H](O)c1nccn1Cc1cc(-c2ccc(C#Cc3ccc(CN4CC(CC(N)=O)C4)nc3)cc2)on1 [Example 122, (S)-2-(1-((5-((4-(3-((2-(1-hydroxyethyl)-1H-imidazol-1-yl)methyl)isoxazol-5-yl)phenyl)ethynyl)pyridin-2-yl)methyl)azetidin-3-yl)acetamide] | 6.71 nM | –
C[C@H](O)c1nccn1Cc1cc(-c2ccc(C#Cc3ccc(CN4CC(C(N)=O)C4)nc3)cc2)on1 [Example 123, (S)-1-((5-((4-(3-((2-(1-hydroxyethyl)-1H-imidazol-1-yl)methyl)isoxazol-5-yl)phenyl)ethynyl)pyridin-2-yl)methyl)azetidin-3-carboxamide] | 8.22 nM | –
